Source: patent US8871460B2, “Gamma-secretase modulatory compounds, methods for identifying same, and uses therefor” (Neurogenetic Pharmaceuticals, Inc., priority 2009, dated 2014)

Assays:
[1] = system: ε-cleavage of a gamma-secretase substrate, Notch; assay: Epsilon cleavage assay: Notch (NICD) in HEK293 cells overexpressing APP751 and NΔE/S2; format: cell-based; conditions: 18 h
Method: The effect of Compound 2 treatment on ε-cleavage of a gamma-secretase substrate, Notch, was assessed using an HEK293 clonal cell line overexpressing APP751 and the Notch construct NΔE/S2. The NΔE/S2 construct lacks most of the extracellular domain of Notch (Schroeter et al. (1998) Nature 393:382-386), and when cleaved by γ-secretase results in production of the Notch intracellular domain (NICD). The cells were plated in replicate 24-well dishes and treated in triplicate with 30 μM of Compound 2, 1 μM of the gamma secretase inhibitor N—[N-(3,5-Difluorophenacetyl-L-alanyl)]S-phenylglycine t-butyl ester (DAPT), or vehicle (0.12% DMSO), for 18 h. Following compound treatment, conditioned medium was collected and analyzed for levels of secreted Aβ40, which confirmed compound activity. Cell lysates were prepared and separated on a 4-20% Tris-glycine gel and probed with an anti-NICD antibody (Cell Signaling, #2421) specific for the cleaved NICD, or anti-GAPDH, which served as a loading control for each lane. NICD bands were then quantified by densitometry and an average of replicate values was compared to the vehicle controls.

[2] = system: γ-secretase-dependent cleavage of E-cadherin; assay: γ-secretase-dependent cleavage of E-cadherin in A431 cells, western blotting; format: cell-based, Human; conditions: overnight (16-18 h), then 6 h 1 μM staurosporine
Method: To measure γ-secretase-dependent cleavage of E-cadherin, an assay similar to that described by Marambaud et al. (2002) EMBO 21: 1948-1956 was developed. Human A431 cells which endogenously express detectable levels of E-cadherin and cleave full length E-cadherin upon treatment with staurosporine are treated overnight (16-18 h) with either test compound or control γ-secretase inhibitor (DAPT). Cleavage of E-cadherin is induced by a 6 h treatment with 1 μM staurosporine. Cell lysates are analyzed for levels of γ-CTF by western blotting and protein bands are quantified by densitometry.

[3] = system: gamma-secretase; assay: Sandwich ELISA of secreted Aβ from CHO-APPSwe cells; format: cell-based, Chinese Hamster; conditions: 18 h
Method: For ELISA analysis, CHO-APPSwe cells were seeded at a density of 100K/well in 96-well plates and allowed to adhere overnight. Medium was removed and replaced with complete DMEM medium containing either vehicle alone (DMSO) or a dose-response of Compound 2 or GSI 1 (the gamma-secretase inhibitor designated Inhibitor 1 in Tian et al. (2002) J. Biol. Chem. 277:31499-31505). Cells were incubated with compounds for 18 h, medium collected, and levels of secreted Aβ determined as described below. Cytotoxicity was determined on each well to be less than 30% using an Alamar Blue assay (see US Published Application 2005/0070538).
Secreted Aβ38 peptide was quantified using an ultra-sensitive sandwich ELISA assay kit (Meso Scale Detection catalog #K111FSE-2) and the Meso Scale Sector Imager 6000 for detection, according to the manufacturer's recommended protocol. Captured Aβ was quantified by comparing ECL signals of the samples to a standard curve (included on each plate) using synthetic Aβ prepared in complete DMEM medium. Aβ standard peptides were purchased from Bachem and stored at 0.5 mg/ml in hexafluoroisopropanol (HFIP) at −20° C.
Secreted Aβ40, Aβ42, and total Aβ were measured using specific sandwich ELISAs. Aβ peptides were captured using either an Aβ40-selective monoclonal antibody (B113), an Aβ42-selective monoclonal antibody (A387), or a total Aβ (1-x) capture monoclonal antibody raised to the amino-terminal region (B436) (see PCT publication WO 04/018997).
Briefly, 96-well white ELISA plates were coated with the appropriate capture antibody, wells were blocked with 1% BSA/TBS, and then samples were assayed in complete medium at an appropriate dilution so that the relative luminescent units (RLUs) were in the linear range of the standard curve. Following sample incubation for all ELISAs, plates were washed and exposed to an alkaline phosphatase (AP) conjugated secondary antibody. For Aβ40 and Aβ42, B436-AP was used as the second antibody in the sandwich ELISA. For the total Aβ ELISA, 4G8-biotin (Signet) (a monoclonal antibody that recognizes the Aβ17-24) was used in combination with strepavidin-AP as the detection complex. Thus, for this experiment, total Aβ includes Aβ peptides from 1-x, where x>24. Bound AP-conjugates were detected with CSPD-Sapphire II Luminescence Substrate (Applied Biosystems) and plates were read using a standard 96-well luminometer.
Captured Aβ was quantified by comparing RLU values of the samples to a standard curve (included on each plate) using synthetic Aβ prepared in complete media. Aβ standard peptides were purchased from Bachem and stored at 0.5 mg/ml in hexafluoroisopropanol (HFIP) at −20° C.

[4] = system: gamma-secretase; assay: Mass spectrometry (SELDI) analysis of secreted Aβ from CHO-APPSwe cells; format: cell-based, Chinese Hamster; conditions: 1 μM, 18 h
Method: CHO-APPSwe cells were plated at 1 million cells per well in 6-well dishes and treated with complete DMEM medium containing either vehicle alone (DMSO), 1 μM Compound 2, or 1 μM GSI 1. Cells were incubated for 18 h, medium collected, and levels of secreted Aβ determined by mass spectrometry. Briefly, collected medium was immunoprecipitated overnight using antibody B436 coupled directly to Sepharose. Fifty ng of Aβ1-28 peptide was spiked into the medium as an internal standard. The Sepharose beads were then washed with TBS and bound Aβ was eluted with acetonitrile/0.1% trifluoroacetic acid. Eluate (3-6 μl) was spotted on NP20 chips (Ciphergen). Once the samples were dry, 20% CHCA matrix was spotted (1 μl) and allowed to dry. Chips were read on a SELDI Ciphergen mass spectrometer and Aβ peptides were identified by expected mass and comparison to standard purchased Aβ peptides (Bachem).

[5] = system: gamma-secretase; assay: Immunoprecipitation and immunoblot analysis of Aβ in CHO-APPSwe conditioned medium; format: cell-based, Chinese Hamster; conditions: 18 h, Compound 2 0.3-1000 nM, GSI 1 3-1000 nM
Method: For this analysis, CHO-APPSwe cells were treated with concentrations of Compound 2 ranging from 0.3 nM to 1000 nM, or with concentrations of a gamma-secretase inhibitor, GSI 1 (Tian et al. (2002) J. Biol. Chem. 277 (35), 31499-31505) ranging from 3 nM to 1000 nM, or with vehicle (0.12% DMSO), for 18 hours. The conditioned medium was collected and immunoprecipitated with the anti-Aβ1-12 antibody B436. Samples were denatured and electrophoresed on gels prepared according to Wiltfang et al. (1997) Electrophoresis 18:527-532, with the following improvements: the separating gel contained 12.5% instead of 15% acrylamide, the comb gel layer was omitted, and glycerol (25%) and DTT (100 mM) were substituted for sucrose and β-mercaptoethanol in the 2× sample buffer. Chemically synthesized Aβ1-37, Aβ1-38, Aβ1-40 and Aβ1-42 peptides (Bachem) were run as size standards. After electrophoresis, the peptides were transferred to nitrocellulose filters and immunoblotted with a biotinylated B436 antibody to detect the various Aβ alloforms.

[6] = target: GST-Pen2 (Homo sapiens, UniProt Q9NZ42); assay: Surface plasmon resonance (SPR) assay, Biacore 2000; conditions: equilibrium responses fit to 1:1 binding isotherm; estimated
Method: A surface plasmon resonance (SPR) assay was performed using the Biacore™ 2000 system and control software (Biacore Life Sciences), essentially as described in Warnmark et al. (2001) J. Biol. Chem. 276:23397-23404. Compound 2 or L-685,458 (Sigma #L1790) were diluted 30 fold from a 25 mM stock in 100% DMSO, then each further diluted into running buffer containing 10 mM HEPES, 150 mM NaCl, 1% Triton X-100, pH 7.4. The compounds were run in a 3-fold dilution series over a GST-Pen2 or a free GST flow cell surface. The binding responses at equilibrium for each compound were fit to a 1:1 binding isotherm in order to estimate the binding affinities.

[7] = system: ε-cleavage of endogenous E-cadherin; conditions: cited from earlier work
[8] = to a lesser extent than Aβ37 and Aβ38

Sequence of GST-Pen2 (Q9NZ42 whole entry): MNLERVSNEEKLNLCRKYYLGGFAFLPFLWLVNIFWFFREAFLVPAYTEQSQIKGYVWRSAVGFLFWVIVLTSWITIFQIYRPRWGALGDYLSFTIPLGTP

For `COc1cc(C)c(Nc2nc(-c3ccc(-n4cnc(C)c4)c(F)c3)cs2)cc1C(C)C` [Compound 2], the “inhibition of Notch processing” value ([1]; up to 30 μM) was “no detectable inhibition”, the “inhibition of E-cadherin cleavage/processing (γ-CTF)” value [2] was “no detectable inhibition” and the “secreted Aβ40 level” value ([3]; ELISA) was “concentration dependent decrease”. The “secreted Aβ42 level” value ([3]; ELISA) was “concentration dependent decrease”, the “total Aβ level” value ([3]; ELISA, Aβ 1-x, x>24) was “did not significantly change” and the “secreted Aβ38 level” value ([3]; ultra-sensitive sandwich ELISA) was “markedly increased”. For the same compound, the “Aβ37 compared to vehicle treated cells” value [4] was “increased”, the “Aβ38 compared to vehicle treated cells” value [4] was “increased” and the “Aβ33 compared to vehicle treated cells” value [4, 8] was “increased”. The “Aβ34 compared to vehicle treated cells” value [4, 8] was “increased”, the “level of Aβ1-37 in conditioned medium” value [5] was “increase” and the “level of Aβ1-38 in conditioned medium” value [5] was “increase”. For the same compound, the “level of Aβ1-40 in conditioned medium” value [5] was “lower” and the Kd [6] was 6.5 µM.
In the case of `C[C@H](NC(=O)Cc1cc(F)cc(F)c1)C(=O)N[C@H]1N=C(c2ccccc2)c2ccccc2N(C)C1=O` [Compound E], the “effect on E-cadherin CTF1 or CTF3” value [7] is listed as “no effect” and the “formation of E-cadherin CTF2” value [7] is listed as “inhibit”.
In the case of `C[C@H](NC(=O)Cc1cc(F)cc(F)c1)C(=O)N[C@H](C(=O)OC(C)(C)C)c1ccccc1` [DAPT, N—[N-(3,5-Difluorophenacetyl-L-alanyl)]S-phenylglycine t-butyl ester, reference compound], the “inhibition of NICD formation” value ([1]; 1 μM) is listed as over 95%, the “inhibition of E-cadherin cleavage/processing (γ-CTF)” value [2] is listed as “completely inhibits” and the “effect on E-cadherin CTF1 or CTF3” value [7] is listed as “no effect”. For the same compound, the “formation of E-cadherin CTF2” value [7] was “inhibit”.
For `CC(C)C[C@H](NC(=O)[C@H](Cc1ccccc1)C[C@@H](O)[C@H](Cc1ccccc1)NC(=O)OC(C)(C)C)C(=O)N[C@@H](Cc1ccccc1)C(N)=O` [L-685,458], the “effect on E-cadherin CTF1 or CTF3” value [7] is listed as “no effect”, the “formation of E-cadherin CTF2” value [7] is listed as “inhibit” and the Kd [6] is listed as 1900 µM.
